One compound from publication PMC5855801, “Benzothiophenone Derivatives Targeting Mutant Forms of Estrogen Receptor-α in Hormone-Resistant Breast Cancers” (International Journal of Molecular Sciences, 2018) can be followed below.

Assay [1] deals with T1, progesterone receptor (PR) (Homo sapiens, UniProt P06401).
T1 construct: expressed in transfected cells; host or cells: PC3
T1 sequence (P06401 1-933): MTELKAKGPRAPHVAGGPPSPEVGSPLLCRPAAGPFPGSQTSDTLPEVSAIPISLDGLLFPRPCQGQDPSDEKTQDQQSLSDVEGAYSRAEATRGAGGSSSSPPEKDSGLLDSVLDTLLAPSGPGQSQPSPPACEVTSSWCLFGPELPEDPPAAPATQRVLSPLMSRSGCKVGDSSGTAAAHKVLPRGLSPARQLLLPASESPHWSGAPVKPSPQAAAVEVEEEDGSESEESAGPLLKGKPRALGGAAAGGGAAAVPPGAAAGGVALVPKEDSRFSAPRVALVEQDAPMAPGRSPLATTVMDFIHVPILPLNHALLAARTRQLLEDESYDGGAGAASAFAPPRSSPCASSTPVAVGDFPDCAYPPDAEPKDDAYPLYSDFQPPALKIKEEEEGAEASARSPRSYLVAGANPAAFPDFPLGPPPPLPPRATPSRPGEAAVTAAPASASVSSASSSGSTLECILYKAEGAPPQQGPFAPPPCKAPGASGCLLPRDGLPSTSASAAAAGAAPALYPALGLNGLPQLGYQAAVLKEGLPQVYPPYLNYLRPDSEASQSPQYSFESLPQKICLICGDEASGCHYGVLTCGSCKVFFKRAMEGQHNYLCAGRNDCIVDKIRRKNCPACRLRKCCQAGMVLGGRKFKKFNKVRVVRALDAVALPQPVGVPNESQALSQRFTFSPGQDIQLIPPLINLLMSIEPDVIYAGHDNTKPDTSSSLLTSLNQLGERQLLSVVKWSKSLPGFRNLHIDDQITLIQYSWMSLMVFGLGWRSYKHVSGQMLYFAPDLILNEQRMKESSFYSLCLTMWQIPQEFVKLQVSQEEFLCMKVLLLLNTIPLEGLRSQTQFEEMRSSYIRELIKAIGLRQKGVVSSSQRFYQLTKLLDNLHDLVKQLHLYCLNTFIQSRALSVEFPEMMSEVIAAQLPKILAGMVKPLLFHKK
Briefly: Luciferase reporter selectivity assay in PC3 cells, PR. Type of assay: cell-based. The note with it: 24 h. Here is the method:
(§1) Figure 4 Further activity profile of VPC-16606. (A,B) Chromatin immunoprecipitation (ChIP) analysis of ERα binding to the pS2 enhancer, or the GAPDH promoter, in MCF7 cells. Where indicated, ERα was stimulated with 1 nM E2 or dimethyl sulfoxide (DMSO) alone, and the compound was administered at a 6 μM concentration. Sheared chromatin-protein complexes were precipitated with the ERα antibody, reverse cross-linked and analyzed by quantitative PCR. The results are normalized as fold enrichment over precipitation with a rabbit isotype control IgG antibody for each condition tested. Error bars indicate standard error of the mean (SEM) for 3 independent experiments performed in triplicates. Fold enrichment from the compound tested condition (ERα antibody) was statistically compared against DMSO + E2 with a two-tailed t-test (unpaired) *** indicates p-value <0.001. (C) Specificity of VPC-16606 was evaluated in the luciferase reporter assay. PC3 cells were transfected with plasmids expressing androgen receptor (AR), progesterone receptor (PR) or glucocorticoid receptor (GR) along with their responsive luciferase reporter constructs bearing androgen response element (ARE), progesterone response element (PRE) or glucocorticoid response element (GRE), respectively. […] Y-axis represents relative luminescence (RLU) after normalizing to constitutive renilla reporter. […]

Assay [2] has as its target T2, androgen receptor (AR) (Homo sapiens, UniProt P10275).
T2 construct: expressed in transfected cells; host or cells: PC3
T2 sequence (P10275 1-920): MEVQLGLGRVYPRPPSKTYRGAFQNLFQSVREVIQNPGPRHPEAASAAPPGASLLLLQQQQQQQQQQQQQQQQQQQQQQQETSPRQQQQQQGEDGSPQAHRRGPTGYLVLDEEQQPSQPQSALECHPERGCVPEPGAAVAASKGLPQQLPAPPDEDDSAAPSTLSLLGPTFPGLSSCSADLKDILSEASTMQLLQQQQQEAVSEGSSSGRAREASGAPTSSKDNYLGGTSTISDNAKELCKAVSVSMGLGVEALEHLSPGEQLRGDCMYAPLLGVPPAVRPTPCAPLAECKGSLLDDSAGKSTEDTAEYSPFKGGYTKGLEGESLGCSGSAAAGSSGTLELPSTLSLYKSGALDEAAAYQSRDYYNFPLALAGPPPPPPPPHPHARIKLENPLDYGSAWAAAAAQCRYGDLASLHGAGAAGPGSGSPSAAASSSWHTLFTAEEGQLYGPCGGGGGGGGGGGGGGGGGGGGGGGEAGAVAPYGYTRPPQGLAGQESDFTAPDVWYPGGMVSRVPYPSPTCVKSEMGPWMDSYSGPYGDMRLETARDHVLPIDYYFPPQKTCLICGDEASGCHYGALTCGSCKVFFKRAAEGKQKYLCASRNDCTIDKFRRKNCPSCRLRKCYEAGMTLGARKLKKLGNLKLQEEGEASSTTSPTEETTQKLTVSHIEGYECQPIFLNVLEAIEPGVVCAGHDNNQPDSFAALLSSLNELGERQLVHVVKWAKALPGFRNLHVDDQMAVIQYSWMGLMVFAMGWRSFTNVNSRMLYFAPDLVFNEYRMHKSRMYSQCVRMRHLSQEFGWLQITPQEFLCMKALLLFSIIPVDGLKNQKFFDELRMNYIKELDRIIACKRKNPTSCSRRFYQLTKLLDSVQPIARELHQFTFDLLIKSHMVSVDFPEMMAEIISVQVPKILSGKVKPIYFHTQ
Briefly: Luciferase reporter selectivity assay in PC3 cells, AR. Type of assay: cell-based. The note with it: 24 h. The procedure:
as §1

As to `CC(=O)N(/N=C1\Sc2c(C)cccc2C1=O)c1ccccc1Cl` [VPC-16606], the results for the “Effect on PR activity (luciferase)” value in assay [1] (50 µM) and in assay [1] (doses up to 25 µM) were “some effect” and “does not affect the activity”, respectively. Besides, the “Effect on AR activity (luciferase)” value in assay [2] (50 µM) was “some effect”; in assay [2] (doses up to 25 µM), “does not affect the activity”.
